Test results published in US20040224984A1, “Methods of treating inflammations and infections with pyridinium salts” (priority 2003, published 2004).

Assays:
[1] = test system: Candida albicans; experiment: Vaginal candidiasis in female Charles River mice; format: in vivo; conditions: mice infected vaginally, 0.025 mL daily for 4 days from 6 hours post-infection, formula I 0.5% (w/v), chlortrimazole 1% (w/v)
Protocol: Mice, infected vaginally with Candida albicans, were treated with 0.025 mL of the above treatments, commencing 6 hours post-infection, daily for 4 days.

[2] = test system: Rodent; experiment: 4 Hour Allergic Pleuritis (rodent inflammation model); format: in vivo; conditions: Prednisolone 0.004 mg/kg
[3] = test system: Rodent; experiment: 4 Hour Allergic Synovitis (rodent inflammation model); format: in vivo; conditions: Prednisolone 0.05 mg/kg
[4] = test system: Rodent; experiment: 4 Hour Carrageenan Pleuritis (rodent inflammation model); format: in vivo; conditions: Prednisolone 0.02 mg/kg
[5] = test system: roundworms, threadworms, and whipworms; conditions: reported; U.S. Pat. No. 3,075,975 and 3,085,935; cited from earlier work

SMILES: Clc1ccccc1C(c1ccccc1)(c1ccccc1)n1ccnc1 [Chlortrimazole]
- Cleared ([1]; mice cleared/treated): 7/10
- Improved ([1]; mice improved/treated): 2/10

SMILES: C[C@]12C=CC(=O)C=C1CC[C@@H]1[C@@H]2[C@@H](O)C[C@@]2(C)[C@H]1CC[C@]2(O)C(=O)CO [Prednisolone]
- % Inhibition Edema [2]: 33%
- % Inhibition Neutrophils [2]: 25%
- % Inhibition Edema [3]: 36%
- % Inhibition Neutrophils [3]: 37%
- % Inhibition Edema [4]: 31%
- % Inhibition Neutrophils [4]: 21%

SMILES: CC[n+]1c(/C=C/c2ccc(N3CCCC3)cc2)cccc1/C=C/c1ccc(N2CCCC2)cc1.[I-] [Stilbazium iodide]
- Anthelmintic efficacy [5]: effective against roundworms, threadworms, and whipworms
